The numbers were not newly measured in patent US12343348B2, “Methods for treating subjects with Prader-Willi syndrome or Smith-Magenis syndrome” (Essentialis, Inc., priority 2014, dated 2025), which cites them from elsewhere.

The target of one series is T1, KATP channel (Homo sapiens, UniProt Q09428).
T1 construct: host or cells: patients with hyperinsulinism or pancreatic insulinoma (endogenous channel)
The following applies: patients with hyperinsulinism and patients with pancreatic insulinoma.

For the next series, the target named is Kir6.2/SUR1 channel (Rattus norvegicus, UniProt Q09429). Particulars: Dabrowski, et al., Diabetes 51 (2002).
Sequence of Kir6.2/SUR1 channel (Q09429 whole entry): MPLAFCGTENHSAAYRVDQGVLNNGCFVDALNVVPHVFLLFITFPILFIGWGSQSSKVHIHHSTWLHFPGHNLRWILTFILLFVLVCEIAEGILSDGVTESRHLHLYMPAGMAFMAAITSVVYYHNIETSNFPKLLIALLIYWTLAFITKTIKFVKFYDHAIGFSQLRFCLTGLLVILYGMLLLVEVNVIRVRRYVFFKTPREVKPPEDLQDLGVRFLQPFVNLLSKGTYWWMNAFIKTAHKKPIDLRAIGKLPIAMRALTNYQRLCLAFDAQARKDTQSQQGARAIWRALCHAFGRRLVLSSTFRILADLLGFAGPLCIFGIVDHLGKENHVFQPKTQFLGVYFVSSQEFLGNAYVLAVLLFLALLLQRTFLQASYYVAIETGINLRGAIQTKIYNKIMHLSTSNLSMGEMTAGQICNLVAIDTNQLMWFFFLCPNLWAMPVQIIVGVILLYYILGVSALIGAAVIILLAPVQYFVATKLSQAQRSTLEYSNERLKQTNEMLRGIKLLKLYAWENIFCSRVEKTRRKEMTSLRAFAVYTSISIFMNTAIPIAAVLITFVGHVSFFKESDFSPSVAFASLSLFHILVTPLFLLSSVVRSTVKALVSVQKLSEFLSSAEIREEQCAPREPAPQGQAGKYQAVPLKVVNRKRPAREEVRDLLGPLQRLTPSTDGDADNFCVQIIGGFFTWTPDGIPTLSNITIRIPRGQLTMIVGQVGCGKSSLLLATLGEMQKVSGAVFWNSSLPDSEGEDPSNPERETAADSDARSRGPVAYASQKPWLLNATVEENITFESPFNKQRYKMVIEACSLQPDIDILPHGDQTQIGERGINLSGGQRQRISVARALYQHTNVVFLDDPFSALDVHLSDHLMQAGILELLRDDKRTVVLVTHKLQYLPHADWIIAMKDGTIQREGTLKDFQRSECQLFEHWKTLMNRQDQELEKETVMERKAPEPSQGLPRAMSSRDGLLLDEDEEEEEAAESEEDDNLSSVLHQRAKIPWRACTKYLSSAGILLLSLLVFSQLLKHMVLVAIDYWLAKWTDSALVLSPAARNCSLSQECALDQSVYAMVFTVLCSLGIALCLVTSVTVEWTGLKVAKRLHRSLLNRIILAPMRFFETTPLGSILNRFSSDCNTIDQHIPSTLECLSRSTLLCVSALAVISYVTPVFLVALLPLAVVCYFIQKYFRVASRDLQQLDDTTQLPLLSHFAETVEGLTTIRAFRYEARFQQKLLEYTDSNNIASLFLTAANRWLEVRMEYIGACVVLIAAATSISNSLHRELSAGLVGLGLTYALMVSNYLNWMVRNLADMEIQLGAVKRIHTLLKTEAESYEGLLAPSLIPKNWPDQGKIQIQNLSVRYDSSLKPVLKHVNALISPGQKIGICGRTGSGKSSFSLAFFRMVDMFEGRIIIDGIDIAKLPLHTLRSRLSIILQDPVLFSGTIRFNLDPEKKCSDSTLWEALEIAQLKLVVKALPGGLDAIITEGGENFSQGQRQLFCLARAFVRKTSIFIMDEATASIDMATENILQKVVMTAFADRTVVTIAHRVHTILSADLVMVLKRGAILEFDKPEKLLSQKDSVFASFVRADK
Sequence of Kir6.2/SUR1 channel (Q61743 whole entry partner): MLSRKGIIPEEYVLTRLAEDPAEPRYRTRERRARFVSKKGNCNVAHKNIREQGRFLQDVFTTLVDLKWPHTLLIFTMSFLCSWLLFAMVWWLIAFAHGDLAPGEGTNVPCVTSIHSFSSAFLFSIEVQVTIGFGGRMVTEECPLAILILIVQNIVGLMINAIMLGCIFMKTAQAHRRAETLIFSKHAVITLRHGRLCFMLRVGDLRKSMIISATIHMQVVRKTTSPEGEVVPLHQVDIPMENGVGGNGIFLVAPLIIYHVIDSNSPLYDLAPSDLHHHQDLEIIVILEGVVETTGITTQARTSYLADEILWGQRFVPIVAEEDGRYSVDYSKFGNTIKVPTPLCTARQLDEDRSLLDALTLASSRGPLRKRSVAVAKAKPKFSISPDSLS

T1 sequence (Q09428 whole entry): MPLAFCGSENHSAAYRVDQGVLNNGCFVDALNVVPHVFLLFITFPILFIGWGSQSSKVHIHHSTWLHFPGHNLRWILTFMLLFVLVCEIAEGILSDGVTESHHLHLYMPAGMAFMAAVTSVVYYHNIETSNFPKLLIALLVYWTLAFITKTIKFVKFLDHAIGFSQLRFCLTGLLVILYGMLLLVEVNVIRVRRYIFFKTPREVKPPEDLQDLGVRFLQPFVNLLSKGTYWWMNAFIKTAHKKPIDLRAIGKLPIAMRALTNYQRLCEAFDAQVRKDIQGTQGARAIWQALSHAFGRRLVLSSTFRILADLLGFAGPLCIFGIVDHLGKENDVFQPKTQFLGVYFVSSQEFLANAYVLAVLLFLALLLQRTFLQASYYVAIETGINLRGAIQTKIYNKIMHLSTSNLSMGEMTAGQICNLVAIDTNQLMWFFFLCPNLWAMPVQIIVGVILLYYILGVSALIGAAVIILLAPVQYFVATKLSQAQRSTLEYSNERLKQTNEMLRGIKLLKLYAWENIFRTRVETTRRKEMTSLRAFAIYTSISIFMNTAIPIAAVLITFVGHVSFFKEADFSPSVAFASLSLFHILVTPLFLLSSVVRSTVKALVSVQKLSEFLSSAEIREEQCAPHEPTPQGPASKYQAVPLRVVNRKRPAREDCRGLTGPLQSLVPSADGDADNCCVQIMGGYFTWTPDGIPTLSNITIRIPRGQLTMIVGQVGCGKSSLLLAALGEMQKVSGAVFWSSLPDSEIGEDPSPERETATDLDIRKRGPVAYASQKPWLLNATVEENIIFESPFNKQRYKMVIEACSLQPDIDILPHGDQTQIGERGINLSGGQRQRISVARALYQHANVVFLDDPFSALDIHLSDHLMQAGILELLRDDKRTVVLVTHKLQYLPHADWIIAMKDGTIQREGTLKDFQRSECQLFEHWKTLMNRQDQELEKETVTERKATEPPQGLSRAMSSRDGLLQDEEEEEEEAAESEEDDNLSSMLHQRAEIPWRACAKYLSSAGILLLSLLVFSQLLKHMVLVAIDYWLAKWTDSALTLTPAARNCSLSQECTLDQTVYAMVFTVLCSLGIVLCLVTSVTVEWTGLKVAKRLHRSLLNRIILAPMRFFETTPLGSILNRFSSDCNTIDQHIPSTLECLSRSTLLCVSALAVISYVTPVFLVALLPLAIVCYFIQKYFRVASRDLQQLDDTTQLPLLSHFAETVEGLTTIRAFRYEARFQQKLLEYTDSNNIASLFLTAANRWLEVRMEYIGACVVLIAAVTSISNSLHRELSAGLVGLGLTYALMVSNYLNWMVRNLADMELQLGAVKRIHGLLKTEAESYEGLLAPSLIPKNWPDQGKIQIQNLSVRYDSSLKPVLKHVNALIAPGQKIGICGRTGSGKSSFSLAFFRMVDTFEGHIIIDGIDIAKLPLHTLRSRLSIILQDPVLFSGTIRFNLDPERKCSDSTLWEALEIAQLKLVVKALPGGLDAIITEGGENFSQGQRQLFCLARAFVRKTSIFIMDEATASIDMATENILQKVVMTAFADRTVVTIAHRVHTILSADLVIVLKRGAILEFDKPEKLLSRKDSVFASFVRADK
T1 sequence (Q14654 whole entry partner): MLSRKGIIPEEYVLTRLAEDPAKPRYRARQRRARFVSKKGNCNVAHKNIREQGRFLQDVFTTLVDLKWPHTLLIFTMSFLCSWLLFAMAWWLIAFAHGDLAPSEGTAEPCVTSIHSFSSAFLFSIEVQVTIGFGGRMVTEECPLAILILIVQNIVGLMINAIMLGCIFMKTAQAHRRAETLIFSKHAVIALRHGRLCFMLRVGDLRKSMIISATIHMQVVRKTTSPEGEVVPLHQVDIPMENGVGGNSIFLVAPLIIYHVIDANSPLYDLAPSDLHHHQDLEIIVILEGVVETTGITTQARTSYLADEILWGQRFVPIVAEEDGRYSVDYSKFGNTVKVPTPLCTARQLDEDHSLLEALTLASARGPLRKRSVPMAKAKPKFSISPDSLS

As for `CC(C)N=C1Nc2cc(Cl)c(Cl)cc2S(=O)(=O)N1` [BPDZ 154], the KATP channel activation result on KATP channel was “effective KATP channel activator”.
For `COc1ccc2c(c1)S(=O)(=O)N=C(NC(C)C)N2` [3-isopropylamino-7-methoxy-4H-1,2,4,-benzothiadiazine 1,1-dioxide], the “KATP channel opener selectivity” value on Kir6.2/SUR1 channel was “selective Kir6.2/SUR1 channel opener”.
